Reference: PMC5605781 (Journal of medicinal chemistry, 2017)

Tests used:
HIV-1 = settings: antiviral activity; cited from earlier work
HIV-1NL4-3 = experiment: Antiviral p24 assay in MT-4 cells, wild-type HIV-1NL4-3; type: cell-based; settings: wild-type HIV-1NL4-3, compared to DRV
[1] = tested on: seven HIV-1 variants selected in vitro with SQV, APV, LPV, IDV, NFV, ATV, TPV; experiment: microbe, parasite or virus in culture; type: cell-based; settings: Human immunodeficiency virus 1, read-out: IC50 values, range over variants

Row | SMILES | EC50 (HIV-1) | factor of more potent block of replication compared to DRV (HIV-1NL4-3) | IC50 [1]
1 | COc1ccc(S(=O)(=O)N(CC(C)C)C[C@@H](O)[C@H](Cc2ccccc2)NC(=O)O[C@H]2CO[C@H]3OCC[C@H]32)cc1 [Inhibitor 3] | 0.5 nM |  | 
2 | CC(C)CN(C[C@@H](O)[C@H](Cc1ccccc1)NC(=O)O[C@H]1C2CO[C@H]3OCC1C3C2)S(=O)(=O)c1ccc2nc(NC3CC3)sc2c1 (stereo partly drawn) [Inhibitor 5, (3S,7aS,8S)-Hexahydro-4H-3,5-methanofuro[2,3-b]pyran-8-yl ((2S,3R)-4-((2-(cyclopropylamino)-N-isobutylbenzo[d]thiazole)-6-sulfonamido)-3-hydroxy-1-phenylbutan-2-yl)carbamate] |  | 10 | 0.0026 to 0.27 nM
